Test results from the OPERA property sets (Mansouri et al. 2018).

| logP | SMILES |
| --- | --- |
| 2.94 | CCc1c(C)ssc1=S |
| 0.82 | O=c1ccss1 |
| 4.26 | Cc1ccc(-c2cc(=S)ss2)cc1 |
| 3.42 | CCCc1ssc(=S)c1C |
| 3.51 | CCc1ssc(=S)c1CC |
| 2.96 | CCCc1c(C)ssc1=O |
| 1.33 | Cc1cssc1=O |
| 2.18 | Cc1cssc1=S |
| 1.69 | CCc1cc(=O)ss1 |
| 3.17 | Cc1ssc(=S)c1-c1ccccc1 |
| 1.9 | CCc1cssc1=O |
| 3.73 | Cc1ccc(-c2cssc2=S)cc1 |
| 3.82 | COc1ccc(-c2cc(=S)ss2)cc1 |
| 2.95 | CCc1ssc(=S)c1C |
| 1.89 | Cc1cc(=S)ss1 |
| 4.1 | COc1ccc(-c2ssc(=S)c2C)cc1 |
| 2.73 | O=c1ssc2ccccc12 |
| 3.39 | CCCc1c(C)ssc1=S |
| 2.53 | S=c1ssc2c1CCC2 |
| 3.18 | CCCc1cssc1=S |
| 2.93 | Cc1ssc(=O)c1-c1ccccc1 |
| 3.75 | S=c1ssc2c1CCCCCC2 |
| 3.52 | CCc1ssc(=S)c1-c1ccccc1 |
| 3.95 | Cc1c(-c2ccccc2)ssc1=S |

| logP | SMILES |
| --- | --- |
| 2.78 | CCc1ssc(=O)c1CC |
| 1.73 | Cc1ssc(=O)c1C |
| 4.06 | CCCCCc1cssc1=S |
| 1.26 | Cc1cc(=O)ss1 |
| 2.67 | CCc1cssc1=S |
| 3.15 | CCc1ssc(=O)c1-c1ccccc1 |
| 3.76 | CCCc1ssc(=S)c1CC |
| 3.27 | S=c1ssc2c1CCCCC2 |
| 3.2 | S=c1sscc1-c1ccccc1 |
| 2.4 | O=c1ssc2c1CCCC2 |
| 3.57 | S=c1ssc2ccccc12 |
| 3.67 | S=c1cc(-c2ccccc2)ss1 |
| 2.24 | CCCc1cc(=O)ss1 |
| 1.58 | S=c1ccss1 |
| 3.7 | CCCCc1cssc1=S |
| 2.38 | CCCc1cssc1=O |
| 3.43 | S=c1cc(Cc2ccccc2)ss1 |
| 2.64 | O=c1sscc1-c1ccccc1 |
| 2.83 | CCCc1cc(=S)ss1 |
| 2.45 | Cc1ssc(=S)c1C |
| 2.31 | CCc1cc(=S)ss1 |
| 3.78 | Cc1ssc(=S)c1Cc1ccccc1 |
| 3.01 | O=c1cc(-c2ccccc2)ss1 |
